# Measured values: US20180369186A1, “METHOD FOR MODULATING AUTOPHAGY AND APPLICATIONS THEREOF” (JAWAHARLAL NEHRU CENTRE FOR ADVANCED SCIENTIFIC RESEARCH, priority 2015, published 2018)
# What was measured:
# [1] = system: LC3B-II; experiment: LC3 processing assay in HeLa cells; assay type: cell-based, human
# Method: For EGFP-α-synuclein degradation assay, equal numbers of sub-confluent SH-SY5Y cells are seeded in 6 well dishes and allowed to attach for 24 h. Cells are transfected with EGFP-α-synuclein plasmid using Lipofectamine 2000 (Life technologies) and allowed to express for 24 h.
# After treatments, cells are collected in Laemmli buffer to perform LC3 processing assay, P70S6K, GSK3β and 4E-BP1 immunoblotting. To validate EGFP-α-synuclein degradation by 6-Bio, treated cells are scraped and collected in growth medium. After washing with phosphate buffer, pellets are lysed in Laemmli buffer and boiled for 10 min.
# Samples are electrophoresed on SDS-PAGE (8-15%) and then transferred onto PVDF (Bio-Rad) membrane using Transblot turbo (Bio-Rad). Transferred blots are stained with Ponceau S, probed with appropriate primary antibodies overnight and subsequently horseradish peroxidase conjugated secondary antibody. Signals are developed using enhanced chemiluminescence substrate (Clarity, Bio-Rad), imaged using a gel documentation system (G-Box, Syngene) and bands are quantified using image software (NIH). (FIGS. 4F and 5A)
# [2] = system: lysosome; experiment: Lysosomal function (lysotracker, LAMP1) in HeLa cells; assay type: cell-based, human
# [3] = Open field test in MPTP mice; assay type: in vivo; settings: 5 mg/kg
# Method: All the behavioural experiments are done on 3-4 month old, male C57/B16 mice. Experimenters are blind to the drug injected animals. Experimenters handle mice used for behavioral experiments for 3 consecutive days prior to the training paradigm. Behavioral experiments are designed in an order of low to high stress activity for mice. Therefore, Open Field Test is conducted in forenoon while rotarod is performed in the afternoon.
# Mice were habituated to the behaviour room for 15 minutes every day before start of experiments. The light intensity is maintained at 100 lux throughout the experiment. Mice are weighed every day before training or test to ensure their good health. Mice are randomly allocated into three treatment cohorts: placebo control, MPTP and 6-Bio. Data is plotted using GraphPad prism 5 software.
# Open field arena (50 cm×50 cm×45 cm) is custom-made (JNCASR) using plywood and the internal surface was coated with white polish. Mice are trained in open field for 2 consecutive days prior to drug injection. […] The activity is video recorded (SONY® color video camera, Model no. SSC-G118) using a software (SMART v3.0.04 from Panlah, Harvard Apparatus, USA). […] Distance travelled is analyzed offline by an experimenter who was not involved in performing the experiment.
# [4] = system: Pot1-GFP (peroxisomes); experiment: Pot1-GFP pexophagy assay; assay type: cell-based, S. cerevisiae
# Method: Pot1-GFP positive strains are allowed to grow till the A600 reached 0.8-1 in YPD. Peroxisome biogenesis is induced by growing these cells in oleate medium (0.1% oleate, 0.5% Tween-40, 0.25% yeast extract, 0.5% peptone, and 5 mM phosphate buffer) for 12hours. Cells are harvested, washed twice to remove traces of oleate and transferred to starvation medium without nitrogen, at inoculum density A600 3, to induce pexophagy. Cells are collected at various time intervals after pexophagy induction and processed by TCA method.
# Pot1-GFP positive strains are allowed to grow in yeast extract peptone dextrose (YPD) (2% dextrose, 2% peptone and 1% yeast extract) till the Absorbance at 600 nm reaches 0.6-0.8. Peroxisome biogenesis is induced by growing these cells in YPG medium (1% yeast extract, 2% peptone, 3% glycerol) for 12 hours.
# Cells are harvested, washed twice to remove traces of oleate and transferred to starvation medium with and without Acacetin, at. inoculum density Absorbance at 600 nm 3/ml, to induce pexophagy. Cells are collected at various time intervals after pexophagy induction and processed by TCA precipitation.
# [5] = system: p62/SQSTM1; experiment: p62 aggregate immunofluorescence in MEFs; assay type: cell-based, mouse; settings: 5 μM, 24 h and 48 h
# Method: Immunofluorescence analysis in MEFs is carried out by fixing the cells with 4% methanol free paraformaldehyde for 15 minutes, permeabilised with 0.5% TritonX-100 in PBS for 10 minutes, and then blocking with 5% FES in PBS for 30 minutes at room temperature, along with PBS washes in between every steps. Anti-p62 antibody (Progen Biotechnik, GP62-C) is used at 1:250 dilution in […] in PBS and incubated overnight at 4° C. Cells are then washed and incubated with goat anti-guinea pig Alexa 594 (ThermoFisher Scientific, A-15 11076) secondary antibody at 1:1000 dilution for 1 hour at room temperature. Cells are washed, counterstained with DAPI (ThermoFisher Scientific, D1306) in PBS for 5 minutes, washed again and then mounted using Prolong diamond anti-fade reagent (ThermoFisher Scientific, P36970). Slides are imaged using a Zeiss LSM 510 Meta Confocal Microscope using 100× objective. Analysis is performed by assessing for the percentage of cells displaying an accumulation of endogenous p62-positive aggregates.
# Analysis of p62 aggregates is done as described previously. […] The percentage of cells with increased p62+ aggregates is quantified by assessing 200 cells per condition from independent experiments, in which a cell with an accumulation of p62+ aggregates was given a score of 1 whereas a cell having basal (low) levels of p62+ aggregates was given a score of 0.
# [6] = system: Atg8; experiment: Atg8 immunolocalization in lace plant; assay type: cell-based, Aponogeton madagascariensis; settings: two hours; same modulator concentrations as MDC; control 0.90±0.08
# Method: Whole leaves are treated for two hours prior to fixation in 100% Methanol at 37° C. and then hydrophilized to 20% methanol by adding distilled water at 60° C. every two minutes for 32 minutes. Samples are then sectioned and placed on a multiwall slide and allowed to air dry for 10 minutes to facilitate membrane permeabilization. Blocking is done for 30 minutes at 37° C. with 4% low fat milk powder in 1× microtubule stabilization buffer MTSB (Modified 2× MTSB stock solution: 15 g PIPES, 1.9 g EDTA, 1.22 g MgSO4*7H2O and 2.5 g KOH—pH 7.0). Primary antibody incubation for anti-rabbit ATG8 (Agrisera, AS14 2769) is done at a 1:1000 dilution in 1× MTSB for 30 minutes at 37° C. Samples are then washed for 5 minutes, 3 times with 1× MTSB. Secondary antibody incubation with Goat anti-rabbit Dylight 488 (Agrisera AS09 633) at a 1:2000 dilution in 1× MTSB is done for 30 minutes at 37° C. and then samples are rinsed as above. Tissues are mounted in Mowiol 4-88 solution (Sigma, 81381) and scanned via confocal microscopy as mentioned above. The mean number of puncta per cell is determined using maximum intensity projections (MIPs) for each replicate. The total number of cells within a field of view are counted manually and the number of puncta are counted automatically using ImageJ.
SMILES,LC3-II levels ([1]; 2 h),"LC3B-II accumulated in presence of E64D and Pepstatin A ([1]; with lysosomal protease inhibitors, vs 6-Bio only)",LAMP1 positive vesicle intensities and distribution [2],lysotracker staining (lysosome acidification) ([2]; 2 h),"distance travelled, Co versus MPTP ([3]; MPTP+Co, day 13)","distance travelled, Post versus MPTP ([3]; administered after 48 h MPTP)",degradation of peroxisomes (Pot1-GFP) ([4]; starvation),"localisation of peroxisomes (fluorescence microscopy) ([4]; starvation, 25 μM Bay11, 50 μM ZPCK)","free GFP release from Pot1-GFP ([4]; wild type cells, up to 6 hours of starvation)",endogenous p62 aggregates [5],mean number of Atg8 puncta per cell [6]
"O=C1Nc2cc(Br)ccc2/C1=C1/Nc2ccccc2/C1=N\O [6-Bio, (2′Z,3′E)-6-Bromoindirubin-3′-oxime]",increases LC3-II,significantly more,unaltered,no change in lysosome acidification,increased dramatically,not protected,,,,,
"Cc1ccc(S(=O)(=O)/C=C/C#N)cc1 [Bay11, 3-[(4-methylphenyl)sulfonyl]-(2E)-propenenitrile]",,,,,,,delay the degradation of peroxisomes,accumulate outside the vacuoles,No free GFP release,significant accumulation of endogenous p62 aggregates,0.22±0.03
